Measured values as given in patent US8642074B2, “Thermosensitive liposomes containing therapeutic agents” (Celsion Corporation, priority 2007, dated 2014).
Values joined by “and” are separate entries in the source; they are usually repeats but may differ in a detail not shown here. Equal values may be shown once.

Assays:
[1] = In vivo drug distribution in heated and non-heated leg muscle, liposome vs free docetaxel (Example 2); parameters: species or system BALB/c mice
Method: Six female BALB/c mice (20±2 g) were randomly separated into 3 groups. The mice were anesthetized and put on a Styrofoam board with a hole in it. One leg of the mouse was pulled through the hole to other side of the board. The board was floated in a water bath to heat the leg at 43.5±0.5° C. for 15 min. The mice then received a tail vein injection of either liposomes at a dose of 10 mg/kg or the same dose of Taxotere (control: prepared according to the manufacturers specifications) The one leg from each mouse was then heated for 30 min. after injection and then sacrificed. Muscles from the heated and non-heated legs were excised. Drug was extracted from a fixed weight of muscle tissue using the extraction method described above. The extracted drug was analyzed by HPLC.

[2] = tested on: Lewis lung carcinoma cells; experiment: In vivo efficacy in mice bearing Lewis lung tumors with local heating; parameters: species or system Kunming mice; conditions: day 18, 75 mg/m^2 on days 8, 12, 16
Method: Twelve female Kunming mice, between 7-9 weeks old and weighing 20±2 g were used. Lewis lung carcinoma cells (3×10^6 cells in 0.1 ml of PBS.) were implanted subcutaneously into the right lower leg of each mouse. Tumors were allowed to grow to 4-6 mm in diameter before starting treatment.
The 12 mice were stratified by tumor volume and randomized to 3 treatment groups: saline, free docetaxel and the thermosensitive liposomes of the invention.
Docetaxel-containing thermosensitive liposomes of the invention were prepared as described above and stored at 2-8° C. until use. Treated animals were injected with 75 mg/m^2 docetaxel either in a thermosensitive liposome of the invention or as non-liposomal Taxotere prepared according to the manufacturer's specifications.
The treatment was started on day 8 after the tumor implantation and was repeated on day 12 and day 16. Mice in all treatment groups were anesthetized with an IP injection of pentobarbital (80 mg/kg); treatment was administered in a volume of 0.2 ml via tail vein injection. This dose of anesthesia provided adequate immobilization for the 1-h treatment period.
Except for the saline group, all treatment groups were given an equivalent dose of 75 mg/m^2 of docetaxel. Immediately after injection, the mice were positioned in specially designed holders that allowed the isolated leg tumor to be placed in a water bath for 30 minutes. The water bath temperature was set at 43° C. This water bath temperature has been calibrated previously to give tumor temperatures of 42° C. All the mice were sacrificed at day 18. The tumors were surgically excised and the tumor weights were recorded. The tumor growth inhibition was calculated as follows: Tumor Inhibition Ratio=(Vs−Vx)/Vs
Where: Vs is tumor volume of saline group, Vx is the tumor volume of treatment group.

CC(=O)O[C@@]12CO[C@@H]1C[C@H](O)[C@@]1(C)C(=O)[C@H](O)C3=C(C)[C@@H](OC(=O)[C@H](O)[C@@H](NC(=O)OC(C)(C)C)c4ccccc4)C[C@@](O)([C@@H](OC(=O)c4ccccc4)[C@H]21)C3(C)C [Docetaxel, docetaxel]
drug concentration in heated compared with non heated tissue ([1]; Example 2, 10 mg/kg tail vein): the same | Adrug/Aref % (heated leg) ([1]; muscle, leg heated at 43.5±0.5° C., 10 mg/kg tail vein, HPLC, Groups 1-3, 10 mg/kg): 5.46% and 6.53% and 5.48% | Adrug/Aref % (non-heated leg) ([1]; muscle, non-heated leg, 10 mg/kg tail vein, HPLC, Groups 1-3, 10 mg/kg): 5.48% and 6.29% and 5.32% | Tumor Weight Average ([2]; group average, tumor heated 30 min, in g (unit assumed)): 1.002 | Tumor Weight ([2]; individual mice, tumor heated 30 min at 42° C., listed as Docetaxel Injection, in g (unit assumed)): 0.500 and 0.118 and 1.380 and 2.010 | Inhibition % ([2]; vs saline group, tumor heated 30 min): 77.91%
